# Data published in patent US10144758B2, “Deuterated bile acids” (Metselex, Inc., priority 2013, dated 2018).
# Assays:
# [1] = test system: primary rat hepatocytes; test: Cytotoxicity of compound alone (ApoTox-Glo Triplex / LDH Cytotoxicity Detection Kit); assay type: cell-based
# Method: Primary rat hepatocytes were isolated from male rats (100-150 grams) by collagenase perfusion (as described by Solá S, et al., 2003, Journal of Biological Chemistry 278: 48831-48838)). Briefly, rats were anesthetized with phenobarbital sodium (100 mg/kg body weight) injected into the peritoneal cavity. After administration of heparin (200 units/kg body weight) in the tail vein, the animal's abdomen was opened and the portal vein exposed and cannulated. The liver was then perfused at 37° C. in situ with a calcium-free Hanks' Balanced Salt Solution (HBSS) for about 10 minutes, and then with 0.05% collagenase type IV in calcium-present HBSS for another 10 minutes. Hepatocyte suspensions were obtained by passing collagenase-digested livers through 125 μm gauze and washing cells in Complete William's E medium (William's E medium, Sigma-Aldrich Corp., St Louis, Mo., USA) supplemented with 26 mM sodium bicarbonate, 23 mM HEPES, 0.01 units/mL insulin, 2 mM L-glutamine, 10 nM dexamethasone, 100 units/mL penicillin, and 10% heat-inactivated fetal bovine serum (Invitrogen Corp., Carlsbad, Calif., USA). Viable primary rat hepatocytes were enriched by low-speed centrifugation at 200 g for 3 minutes. Cell viability was determined by trypan blue exclusion and was typically 80-85%. After isolation, hepatocytes were resuspended in Complete William's E medium and plated on Primaria™ tissue culture dishes (BD Biosciences, San Jose, Calif., USA) at 5×10^4 cells/cm^2. Cells were maintained at 37° C. in a humidified atmosphere of 5% CO2 for 6 hours to allow attachment. Plates were then washed with medium to remove dead cells and incubated in Complete William's E medium supplemented with either 100-400 μM UDCA (Sigma-Aldrich Corp.), 100-400 μM deuterated UDCA (compound 5), or no addition (control). Eight hours after pre-incubation, cells were exposed to 1 nM recombinant human TGF-β1 (R&D Systems Inc., Minneapolis, Minn., USA) for 36 hours, or to 50 or 100 μM DCA for 16 hours before processing for cell viability, cytotoxicity and apoptosis assays.
# (§1) The ApoTox-Glo™ Triplex Assay (Promega Corp., Madison, Wis., USA) was used to evaluate cell viability, cytotoxicity and caspase-3/7 activity, according to the manufacturer's protocol, using a GloMax+ Multi Detection System (Promega Corp.). General cell death was also evaluated using the lactate dehydrogenase (LDH) Cytotoxicity Detection Kit^PLUS (Roche Diagnostics GmbH, Mannheim, Germany), following the manufacturer's instructions.
# [2] = test system: primary rat hepatocytes; test: DCA-induced caspase-3/7 activity (ApoTox-Glo Triplex); assay type: cell-based; details: 50 and 100 μM DCA; pretreatment; FIG. 7B
# Method: Primary rat hepatocytes were isolated from male rats (100-150 grams) by collagenase perfusion (as described by Solá S, et al., 2003, Journal of Biological Chemistry 278: 48831-48838)). Briefly, rats were anesthetized with phenobarbital sodium (100 mg/kg body weight) injected into the peritoneal cavity. After administration of heparin (200 units/kg body weight) in the tail vein, the animal's abdomen was opened and the portal vein exposed and cannulated. The liver was then perfused at 37° C. in situ with a calcium-free Hanks' Balanced Salt Solution (HBSS) for about 10 minutes, and then with 0.05% collagenase type IV in calcium-present HBSS for another 10 minutes. […] Cell viability was determined by trypan blue exclusion and was typically 80-85%. […]
# as §1, with “instructions. […]” for “instructions.”
substance,measurement,setting,value
"7,8-[^2H]-3α,7α-dihydroxy-5β-cholan-24-oic acid/7-[^2H]-3α,7α-dihydroxy-5β-cholan-24-oic acid [Compound 5]",cytotoxicity compared with UDCA,"[1]; 400 μM, 24 and 44 hours",comparable to UDCA cytotoxicity
same,increase in cytotoxicity,"[1]; 400 μM, 24 hours",~2%
same,increase in cytotoxicity,"[1]; 400 μM, 44 hours",~15%
same,signs of cytotoxicity,[1]; 100 and 200 μM,no relevant signs of cytotoxicity
same,inhibition of caspase activity,[2],more effective than UDCA
